Where two headings read alike, the source gives them in different places.
Experiments:
Format in all cases: cell-based
[1] = tested on: human biphenotypic B myelomonocytic leukemia MV4-11; assay: Antiproliferative activity, MTT assay, 72 h; details: for IC50: Homo sapiens, MV4-11, 72 h; for SI: IC50 MCF-10A / IC50 MV4-11
Method: (§1) The tested compounds were dissolved in DMSO (dimethyl sulfoxide) to a concentration of 10 mg/mL and then were diluted in the culture medium to reach the final concentrations. The cells were plated in 384-well plates at a density of 1 × 10^3 or 2 × 10^3 (MCF-10A) cells per well (Greiner Bio One, Kremsmünster, Austria) and in 96-well plates (MV4-11 cell; Sarstedt, Nümbrecht, Germany) at a density of 5 × 10^3 cells per well. After 24 h of incubation, the tested compounds were added at concentrations in the range of 100–0.03 µg/mL and, after the next 72 h of exposure to tested agents, the cytotoxic effect of all agents was examined using the MTT (MV4-11) or SRB assay, described previously. The values of IC50 (inhibitory concentration 50%) were calculated separately for each experiment (repeated 3–5 times) using the Prolab-3 system which is based on Cheburator 0.4 software. Doxorubicin was applied as a reference drug. The IC50 values in µg/mL were calculated to µM.
This assay was used against MV4-11 leukemia cells and was performed after 72 h of exposure of the tested agents to the cells. For each well, 20 µL of the MTT [3-(4,5-dimethylthiazol-2-yl)-2,5-diphenyl tetrazolium bromide] solution (5 mg/mL, Merck, Darmstadt, Germany) was added. After the incubation time (4 h at 37 °C), 80 µL of the lysing buffer was added to each well (mixture of 225 mL of DMF (dimethylformamide) Avantor, Poland; 67.5 g of SDS, Merck, Darmstadt, Germany; and 275 mL of distilled water). After the next 24 h, the absorbance of the samples was measured at a 570 nm wavelength on a Synergy H4 photometer (BioTek Instruments, Winooski, VT, USA). The absorbance of wells without the cells was the background.

[2] = tested on: human melanoma Hs294T cells; assay: Antiproliferative activity, SRB assay, 72 h; details: for IC50: 72 h; for SI: IC50 MCF-10A / IC50 Hs249T (so in the source)
Method: as §1
(§2) The cytotoxicity assay was performed after the cultured cells were exposed to the tested agents for 72 h using the authomatic Washer dyspenser EL406, BioTek. At the first step, the washer dispenser collected 40 µL of cultured medium from each wells, and then the cells were fixed by gently layering 20 µL per well of cold 25% trichloroacetic acid to each well. The incubation time was 40 min and then the plates were washed with tap water. The cells were stained with 20 µL per well of 0.1% sulforhodamine B (SRB, Merck, Darmstadt, Germany) for 30 min. Unbound sulforhodamine B was removed by washing it with 1% acetic acid. The protein-bound dye was extracted in 30 min using 70 µL per well of 10 mM unbuffered Tris base (Merck, Darmstadt, Germany). The absorbance (at 540 nm) was measured on a Synergy H4 photometer (BioTek Instruments, Winooski, VT, USA). The absorbance of the wells without the cells was the background.

[3] = tested on: human colon cancer HCT116 cells; assay: Antiproliferative activity, SRB assay, 72 h; details: for SI: IC50 MCF-10A / IC50 HCT116
Method: as §1, §2

[4] = tested on: human pancreas cancer MiaPaca-2 cells; assay: Antiproliferative activity, SRB assay, 72 h; details: for SI: IC50 MCF-10A / IC50 MiaPaca-1 (so in the source)
Method: as §1, §2

[5] = tested on: human prostate adenocarcinoma PC-3; assay: Antiproliferative activity, SRB assay, 72 h; details: for IC50: Homo sapiens; for SI: IC50 MCF-10A / IC50 PC-3
Method: as §1, §2

[6] = tested on: human lung carcinoma A549; assay: Antiproliferative activity, SRB assay, 72 h; details: for IC50: A549, 72 h; for SI: IC50 MCF-10A / IC50 A549
Method: as §1, §2

[7] = tested on: human breast cancer MCF-7; assay: Antiproliferative activity, SRB assay, 72 h; details: for IC50: Homo sapiens; for SI: IC50 MCF-10A / IC50 MCF-7
Method: as §1, §2

[8] = tested on: human normal epithelial cells from the mammary gland (MCF-10A); assay: Cytotoxicity on non-tumorigenic cells, SRB assay, 72 h
Method: as §1, §2

[9] = Homo sapiens, Hs 294T, Hs249T (so in the source), SRB, read-out: IC50
[10] = Homo sapiens, HCT-116, HCT116, 72 h, SRB, read-out: IC50
[11] = Homo sapiens, MIA PaCa-2, MiaPaca-1 (so in the source), 72 h, SRB, read-out: IC50
[12] = PC-3, 72 h, SRB, read-out: IC50
[13] = Homo sapiens, SRB, read-out: IC50
[14] = MCF7, MCF-7, 72 h, SRB, read-out: IC50
[15] = Homo sapiens, MCF-10A normal cells, SRB, read-out: IC50

SMILES	IC50 ([1]; MTT, read-out: IC50) [µM]	SI [1]	IC50 [2, 9] [µM]	SI [2]	IC50 [3, 10] [µM]	SI [3]	IC50 [4, 11] [µM]	SI [4]	IC50 [5, 12] [µM]	SI [5]	IC50 [6, 13] [µM]	SI [6]	IC50 [7, 14] [µM]	SI [7]	IC50 [8, 15] [µM]	further results
C#CCCC(=O)OC[C@]12CC[C@@H](C(=C)C)C1C1CCC3[C@@]4(C)CC[C@H](OC(=O)CCC(=O)O)C(C)(C)C4CC[C@@]3(C)[C@]1(C)CC2 (stereo partly shown) [Compound 6b]	3.53 ± 0.64	8.68	17.5 ± 6.26	1.75	9.95 ± 0.64	3.08	27.4 ± 2.57	1.12	13.2 ± 2.57	2.33	3.21 ± 0.64	9.55	11.4 ± 4.17	2.69	30.7 ± 3.69	
C=C(C)[C@@H]1CC[C@]2(COC(C)=O)CC[C@]3(C)C(CCC4[C@@]5(C)CC[C@H](OC(=O)CC(C)(C)C(=O)O)C(C)(C)C5CC[C@]43C)C12 (stereo partly shown) [Compound 2, 28-acetyl-3-(3′,3′-dimethylsuccinyl)betulin]		7.70		1.23		3.10		1.20		1.69		7.43		2.04		IC50 [1]: 4.4 ± 1.63 µM; IC50 ([2]; Homo sapiens, Hs 294T): 27.6 ± 0.65 µM; IC50 ([3]; Homo sapiens, HCT-116, 72 h): 10.9 ± 2.94 µM; IC50 ([4]; Homo sapiens, MIA PaCa-2, 72 h): 28.2 ± 4.4 µM; IC50 ([5]; 72 h): 20.1 ± 2.12 µM; IC50 ([6]; Homo sapiens): 4.57 ± 1.79 µM; IC50 ([7]; MCF7, 72 h): 16.6 ± 7.67 µM; IC50 ([8]; Homo sapiens, MCF-10A): 33.9 ± 4.24 µM
C=C(C)[C@@H]1CC[C@]2(COC(=O)CC)CC[C@]3(C)C(CCC4[C@@]5(C)CC[C@H](OC(=O)CC(C)(C)C(=O)O)C(C)(C)C5CC[C@]43C)C12 (stereo partly shown) [Compound 5d]	2.5 ± 0.48	13.63	59.7 ± 38.6	0.57	12.3 ± 4.15	2.78	29.2 ± 1.59	1.17	16.6 ± 6.54	2.06	4.62 ± 1.59	7.38	21.1 ± 9.89	1.62	34.1 ± 4.94	
C#CC(=O)OC[C@]12CC[C@@H](C(=C)C)C1C1CCC3[C@@]4(C)CC[C@H](OC(=O)CC(C)(C)C(=O)O)C(C)(C)C4CC[C@@]3(C)[C@]1(C)CC2 (stereo partly shown) [Compound 5a]	0.6 ± 0.175	21.17			3.64 ± 0.6	3.49			0.85 ± 0.17	14.94	10.7 ± 3	1.18	19.4 ± 3.1	0.65	12.7 ± 0.5	
C=C(C)[C@@H]1CC[C@]2(COC(=O)C#CC)CC[C@]3(C)C(CCC4[C@@]5(C)CC[C@H](OC(=O)CC(C)(C)C(=O)O)C(C)(C)C5CC[C@]43C)C12 (stereo partly shown) [Compound 5c]	11 ± 1.1	2.91	23.2 ± 3.77	1.38	9.26 ± 0.47	3.46	32 ± 6.12	1.00	22.9 ± 4.71	1.40	6.59 ± 1.88	4.86	25 ± 4.87	1.28	32 ± 4.87	
C=C(C)[C@@H]1CC[C@]2(CO)CC[C@]3(C)C(CCC4[C@@]5(C)CC[C@H](OC(=O)CC(C)(C)C(=O)O)C(C)(C)C5CC[C@]43C)C12 (stereo partly shown) [Compound 5]	7.81 ± 2.8	3.43	30.8 ± 1.4	0.87	14.7 ± 4.55	1.82	30.7 ± 2.63	0.87	27 ± 3.85	1.01	9.11 ± 0.87	2.94	29.2 ± 3.85	0.92	26.8 ± 2.1	
C=C(C)[C@@H]1CC[C@]2(COC(C)=O)CC[C@]3(C)C(CCC4[C@@]5(C)CC[C@H](OC(=O)CC(C)(C)CC(=O)O)C(C)(C)C5CC[C@]43C)C12 (stereo partly shown) [Compound 1]	2.9 ± 0.26	11.44	11.6 ± 1.12	2.85	6.38 ± 2.87	5.20	23.6 ± 3.83	1.41	14 ± 7.02	2.36	4.94 ± 0.48	6.71	7.02 ± 2.39	4.73	33.2 ± 1.91	
C=C(C)[C@@H]1CC[C@]2(COC(C)=O)CC[C@]3(C)[C@H](CC[C@@H]4[C@@]5(C)CC[C@H](O)C(C)(C)[C@@H]5CC[C@]43C)[C@@H]12 [A, 28-O-acetylbetulin, reference compound]	41.1 ± 8.46	3.02	128 ± 14.2	0.97	40.6 ± 13.6	3.05	127 ± 16.3	0.98	80.7 ± 13.4	1.54	27.8 ± 10.5	4.45	72.4 ± 6.6	1.71	124 ± 33	
C=C(C)[C@@H]1CC[C@]2(COC(C)=O)CC[C@]3(C)C(CCC4[C@@]5(C)CC[C@H](OC(=O)CCC(=O)O)C(C)(C)C5CC[C@]43C)C12 (stereo partly shown) [Compound 3]		8.82		1.53		2.55		0.97		1.50		6.53		1.94		IC50 [1]: 3.93 ± 1.54 µM; IC50 ([2]; Homo sapiens, Hs 294T): 21.9 ± 4.27 µM; IC50 ([3]; Homo sapiens, HCT-116, 72 h): 13.2 ± 1.02 µM; IC50 ([4]; Homo sapiens, MIA PaCa-2, 72 h): 34.5 ± 5.47 µM; IC50 ([5]; 72 h): 22.4 ± 2.56 µM; IC50 ([6]; Homo sapiens): 5.13 ± 0.85 µM; IC50 ([7]; MCF7, 72 h): 17.3 ± 6.33 µM; IC50 ([8]; Homo sapiens, MCF-10A): 33.5 ± 1.88 µM
C=C(C)[C@@H]1CC[C@]2(COC(=O)C#Cc3ccccc3)CC[C@]3(C)C(CCC4[C@@]5(C)CC[C@H](OC(=O)CC(C)(C)CC(=O)O)C(C)(C)C5CC[C@]43C)C12 (stereo partly shown) [Compound 4f]																IC50 [1]: 46.6 ± 11.8 µM; IC50 ([2]; Hs249T (so in the source), SRB): Neg; IC50 ([3]; HCT116, 72 h, SRB): does not show activity and Neg; IC50 ([4]; MiaPaca-1 (so in the source), 72 h, SRB): Neg; IC50 ([5]; 72 h): 95.8 ± 27.1 µM; IC50 ([6]; SRB): does not show activity and Neg; IC50 ([7]; MCF7, 72 h): 131 ± 8.83 µM; IC50 ([8]; MCF-10A normal cells, SRB): Neg
C=C(C)[C@@H]1CC[C@]2(COC(=O)CC)CC[C@]3(C)C(CCC4[C@@]5(C)CC[C@H](OC(=O)CC(C)(C)CC(=O)O)C(C)(C)C5CC[C@]43C)C12 (stereo partly shown) [Compound 4d]	5.15 ± 0.47	11.73	18.7 ± 9.67	3.23	16.9 ± 5.61	3.58	34.2 ± 2.96	1.77	21.7 ± 4.52	2.78	6.24 ± 1.25	9.68	20.6 ± 5.77	2.93	60.4 ± 15.9	
C=C(C)[C@@H]1CC[C@]2(COC(=O)C#CC)CC[C@]3(C)C(CCC4[C@@]5(C)CC[C@H](OC(=O)CC(C)(C)CC(=O)O)C(C)(C)C5CC[C@]43C)C12 (stereo partly shown) [Compound 4c]	3.23 ± 1.38	10.10	9.68 ± 1.54	3.37	8.45 ± 2.15	3.85	22.7 ± 5.53	1.43	10.1 ± 2.46	3.21	7.37 ± 2.3	4.42	16.6 ± 2.15	1.96	32.6 ± 2.15	

Reference: PMC11821258 (Molecules, 2025)
